Experiment [1] relates to CDKs. Put plainly: DARTS assay, CDKs. Particulars: 20 μM KP. It is filed as binding, rat. The method, then: Cultured primary rat cortical neurons were treated with either vehicle DMSO (0.1%) or 20 μM KP for 30 h. Cells were lysed in ice-cold lysis buffer (Tris.Cl pH8 50 mM, NaCl 150 mM, NP40 0.5%, N-dodecyl-b-D-maltoside 0.5%, Phosphatase Inhibitor (Pierce #88667) and Protease Inhibitor (Roche #11836153001)). Protein concentrations were determined by Bio-Rad DC Protein Assay kit using bovine albumin as standard. All steps were performed on ice. Samples were warmed to room temperature and digested with pronase (final concentration 1:500) for 30 min at 30° C. Digestion was halted using 0.5M EDTA. Only proteins not bound to KP were digested. The protein mixture was dialyzed using dialysis cassettes (Thermo Fisher 66203, 2K MWCO) and analyzed by LC-MS/MS method to identify proteins that are bound to KP, the latter step carried out in the Duke Proteomics Core Laboratory.
A drug affinity responsive target stability (DARTS) assay (Lomenick, et al., 2009, Proc Natl Acad Sci USA 106:21984-21989) was used to study direct binding of KP to GSK3ß (FIG. 8A) in primary cortical neurons. The findings were consistent with previous reports in cell lines (Knockaert, et al., 2002, The Journal of biological chemistry 277:25493-25501) yet novel in primary neurons. […]

Experiment [2] has as its system KCC2 promoter. Put plainly: KCC2-LUC luciferase primary screen in primary cortical neurons. The format is cell-based, mouse. Particulars: Natural Compounds; rank score; 100 nM, 48 h. The method, then: Cytosine arabinoside ([…]) was added to cultures on the second day after seeding [2 d in vitro (DIV)] to inhibit the proliferation of non-neuronal cells. Cell suspension was plated at a density of 1×10^6 cells/ml onto 24-well tissue-culture dishes coated with poly-d-lysine.
LUC activity was then determined for each compound. Culture supernatant was removed and cells were lysed with 150 μl lysis buffer (Targeting Systems CA, USA cat. CLR1). LUC activity was measured with a RedLuciferase Assay kit (Targeting Systems cat. FLAR) according to the manufacturer's instructions. A Veritas microplate luminometer was used to measure luminescence; for each treatment triplicates of 40 μl cell lysates (from each 24-well tissue-culture dish) were used and 25 μl substrate was injected per well. […] Relative Light units (RLU) for each treatment was derived from Light Units (compound treatment)/vehicle treatment (0.5% DMSO).
The primary screen encompassed three levels of LUC measurements. […] Each compound was ranked based on composite scores from primary and secondary screening.

As to `O=C1Cc2c([nH]c3ccc(Br)cc23)-c2ccccc2N1` [kenpaullone, 9-bromo-7,12-dihydro-indolo [3,2-d] [1]benzazepin-6(5H)-one], the “binding of KP to CDKs” value in experiment [1] was “not identified”. Moreover, the “Luciferase Score (triplicates)” value in experiment [2] worked out at 2.

These data come from patent US20220281930A1, “COMPOSITIONS AND METHODS FOR THE TREATMENT OF PATHOLOGICAL PAIN AND ITCH” (DUKE UNIVERSITY, priority 2019, published 2022).
